{"source": "ChEMBL document CHEMBL1155172", "about": "“Distribution of radioactivity in bone and related structures following administration of [14C]dalbavancin to New Zealand white rabbits” (Antimicrob Agents Chemother, 2007)", "set-up_in_all_cases": "dose 20 mg/kg, route intravenous", "conditions_in_all_cases": "in vivo", "key": {"[1]": {"assay": "Drug level in New Zealand white rabbit synovial space assessed as [14C]dalbavancin level per gram of tissue at 20 mg/kg, iv after 72 hrs by autoradioluminography", "format": "ADME, organism-based, Oryctolagus cuniculus"}, "[2]": {"assay": "Drug level in New Zealand white rabbit bone marrow assessed as [14C]dalbavancin level per gram of tissue at 20 mg/kg, iv after 336 hrs by autoradioluminography", "format": "ADME, organism-based, Oryctolagus cuniculus"}, "[3]": {"assay": "Drug level in New Zealand white rabbit ligament assessed as [14C]dalbavancin level per gram of tissue at 20 mg/kg, iv after 72 hrs by autoradioluminography", "format": "ADME, organism-based, Oryctolagus cuniculus"}, "[4]": {"assay": "Drug level in New Zealand white rabbit cerebrospinal fluid assessed as [14C]dalbavancin level per gram of tissue at 20 mg/kg, iv after 12 hrs by liquid scintillation counting method", "format": "ADME, organism-based, Oryctolagus cuniculus"}, "[5]": {"assay": "Drug level in New Zealand white rabbit synovial space assessed as [14C]dalbavancin level per gram of tissue at 20 mg/kg, iv after 336 hrs by autoradioluminography", "format": "ADME, organism-based, Oryctolagus cuniculus"}, "[6]": {"assay": "Drug level in New Zealand white rabbit bone assessed as [14C]dalbavancin level per gram of tissue at 20 mg/kg, iv after 12 hrs by liquid scintillation counting method", "format": "ADME, organism-based, Oryctolagus cuniculus, Bone element"}, "Oryctolagus cuniculus": {"test_system": "Oryctolagus cuniculus", "assay": "Plasma concentration in New Zealand white rabbit assessed as [14C]dalbavancin level per gram of tissue at 20 mg/kg, iv after 12 hrs by liquid scintillation counting method", "format": "ADME, organism-based"}, "[7]": {"assay": "Drug level in New Zealand white rabbit meniscus assessed as [14C]dalbavancin level per gram of tissue at 20 mg/kg, iv after 120 hrs by autoradioluminography", "format": "ADME, organism-based, Oryctolagus cuniculus"}, "[8]": {"assay": "Drug level in New Zealand white rabbit articular cartilage assessed as [14C]dalbavancin level per gram of tissue at 20 mg/kg, iv after 24 hrs by autoradioluminography", "format": "ADME, organism-based, Oryctolagus cuniculus"}, "[9]": {"assay": "Drug level in New Zealand white rabbit skeletal muscle assessed as [14C]dalbavancin level per gram of tissue at 20 mg/kg, iv after 120 hrs by autoradioluminography", "format": "ADME, organism-based, Oryctolagus cuniculus"}}}
{"smiles": "CN[C@H]1C(=O)N[C@@H]2Cc3ccc(cc3)Oc3cc4cc(c3O[C@@H]3O[C@H](C(=O)O)[C@@H](O)[C@H](O)[C@H]3NC(=O)CCCCCCCCC(C)C)Oc3ccc(cc3Cl)[C@@H](O)[C@@H]3NC(=O)[C@H](NC(=O)[C@@H]4NC(=O)[C@@H](NC2=O)c2cc(cc(O)c2Cl)Oc2cc1ccc2O)c1ccc(O)c(c1)-c1c(O[C@H]2O[C@H](CO)[C@@H](O)[C@H](O)[C@@H]2O)cc(O)cc1[C@@H](C(=O)NCCCN(C)C)NC3=O", "note": "[DALBAVANCIN]", "values": [{"measurement": "Drug uptake", "setting": "[1]", "value": 1.49, "unit": "µg/g"}, {"measurement": "Drug uptake", "setting": "[2]", "value": 30.3, "unit": "µg/g"}, {"measurement": "Drug uptake", "setting": "[3]", "value": 4.56, "unit": "µg"}, {"measurement": "Drug uptake", "setting": "[4]", "value": 0.08, "unit": "µg/g"}, {"measurement": "Drug uptake", "setting": "[5]", "value": 1.16, "unit": "µg/g"}, {"measurement": "Drug uptake", "setting": "[6]", "value": 7.04, "unit": "µg"}, {"measurement": "Cp", "setting": "Oryctolagus cuniculus", "value": 46.88, "unit": "µg"}, {"measurement": "Drug uptake", "setting": "[7]", "value": 4.39, "unit": "µg/g"}, {"measurement": "Drug uptake", "setting": "[8]", "value": 21.4, "unit": "µg/g"}, {"measurement": "Drug uptake", "setting": "[9]", "value": 0.99, "unit": "µg/g"}]}
